Experimental data: article PMC2906235 (The Journal of organic chemistry, 2010)
Like-named read-outs stand apart in the source and are kept apart here.

What was measured:
[1] = biological target: recombinant human Hsp90 (Hsp90α) (Homo sapiens, UniProt P07900); experiment: Competitive binding to recombinant human Hsp90; conditions: relative to control 17-AAG
[2] = system: MOLM-13 acute myeloid leukemia cell line; experiment: MOLM-13 cell growth inhibition assay; assay type: cell-based
[3] = system: Kasumi-1 acute myeloid leukemia cell line; experiment: Kasumi-1 cell growth inhibition assay; assay type: cell-based; conditions: read-out: Kasumi-1 IC50
oncostatin M signaling = conditions: cited from earlier work
[4] = system: human histiocytic lymphoma U-937; conditions: U-937 cells; cited from earlier work
[5] = system: Hsp90 derived from MDA-MB-468 breast cancer cell lysate; experiment: Competitive binding assay to Hsp90 from MDA-MB-468 breast cancer cell lysate
[6] = read-out: MOLM-13 IC50, cell growth inhibition, MOLM-13

Fold higher Hsp90 affinity than 17-AAG [1]	Fold higher Hsp90 affinity than 17-AAG ([1]; listed as autolytimycin 2)	IC50 ([2]; read-out: MOLM-13 IC50, cell growth inhibition, MOLM-13, listed as autolytimcyin (2))	Fold higher Hsp90 affinity than 17-AAG ([1]; listed as reblastatin 1)	IC50 ([2]; Homo sapiens, MOLM-13, read-out: MOLM-13 IC50, cell growth inhibition, MOLM-13)	SMILES	IC50 [2, 6]	IC50 [3]	Activity in cell based oncostatin M signaling assay (oncostatin M signaling)	Fold less active than 17-AAG ([2]; MOLM-13 cell line)	IC50, inhibition of proliferation [4]	Competitive binding (nanomolar activity) to Hsp90 ([5]; Hsp90 from MDA-MB-468 breast cancer cell lysate)	Fold enhanced activity over geldanamycin ([5]; MDA-MB-468 lysate competitive binding)	IC50 (oncostatin M signaling; read-out: IC50, oncostatin M signaling assay, cell-based)	IC50 ([2]; read-out: MOLM-13 IC50, cell growth inhibition, MOLM-13, listed as 17-AAG 4)
4 fold	about 4 fold	510 nM	–	–	CO[C@H]1C[C@H](C)Cc2cc(O)cc(c2)NC(=O)/C(C)=C/CC[C@H](OC)[C@@H](OC(N)=O)/C(C)=C/[C@H](C)[C@H]1O [autolytimycin (2), Autolytimycin]	~510 nM	280 nM	exhibit activity	–	–	–	–	–	–
4 fold	–	–	about 4 fold	~270 nM	COc1c(O)cc2cc1C[C@@H](C)C[C@H](OC)[C@H](O)[C@@H](C)/C=C(\C)[C@H](OC(N)=O)[C@@H](OC)CC/C=C(\C)C(=O)N2 [reblastatin (1), reblastatin]	–	–	–	3 fold	0.43 µg/mL	7.34 nM	4 fold	160 nM	–
–	–	–	–	–	C=CCNC1=C2C[C@@H](C)C[C@H](OC)[C@H](O)[C@@H](C)/C=C(\C)[C@H](OC(N)=O)[C@@H](OC)/C=C\C=C(/C)C(=O)NC(=CC1=O)C2=O [17-AAG (4), 17-allylamino-17-demethoxygeldanamycin, reference compound]	90 nM	480 nM	–	–	–	–	–	–	~90 nM
